{"source": "paper PMC5838106", "about": "“Cathelicidin promotes inflammation by enabling binding of self-RNA to cell surface scavenger receptors” (Scientific Reports, 2018)", "assay_type_in_all_cases": "cell-based, human", "key": {"THP1 cells [1]": {"tested_on": "THP1 cells", "test": "Cytokine expression in PMA-treated THP1 cells stimulated with cathelicidin peptide and U1 RNA", "settings": "PMA-treated THP1, peptide 3 μM 10 minutes, then U1 RNA 12.5 μg/mL overnight; n = 3", "protocol": "(§1) Figure 1 Inflammatory activity of cathelicidin can be dissociated from antimicrobial function (a) Transcriptomic analysis by RNASeq of primary cultures of normal human epidermal keratinocytes (NHEKs) treated with LL37 (2.5 μM) with or without U1 RNA (2.5 μg/mL) for 24 hours. Shown are gene sets induced > 2 fold over vehicle, and after treatment with LL37, U1 RNA, or the combination of LL37 + U1 RNA. (b) Gene Ontology analysis of gene sets from (a). The number of genes related to each biological process is indicated in parentheses. (c) Amino acid sequence of synthetic cathelicidin peptides used in this study. (d) Antimicrobial assay of cathelicidin peptides against group A streptococcus (GAS). GAS were incubated with various concentrations of each peptide (0–25 μM) for 6 hours, then surviving colonies counted after plating on Todd Hewitt Broth gel. (e) IFN-β1 mRNA abundance and (f) IL-6 mRNA abundance in NHEKs after treatment with cathelicidin peptides (2.5 μM) for 10 minutes, then stimulated with U1 RNA (2.5 μg/mL) for a further 6 hours. (n = 3). (g) IFN-β1 mRNA abundance and (h) IL-6 mRNA abundance in […] (PMA)-treated THP1 cells after treatment with cathelicidin peptides (3 μM) for 10 minutes, then stimulated with U1 RNA (12.5 μg/mL) overnight. (n = 3). Data presented are from one representative experiment of at least two independent experiments. Error bars are SEM of three biological replicates. *P < 0.05, **P < 0.01, ***P < 0.001 by two-way ANOVA with Bonferroni’s post-hoc test. See also Fig. S1.\nPrimary neonatal human epidermal keratinocytes (NHEKs) was purchased from ThermoFisher Scientific. NHEKs were grown in serum free EpiLife medium supplemented with 0.06 mM CaCl2, EpiLife Defined growth supplements (EDGS) (ThermoFisher Scientific) and antibiotics, and passage 3–5 cells were used for experiment. Cells at 60–80% confluence were starved overnight without EDGS prior to treatment. THP1 was purchased from American Type Culture Collection (ATCC) (Manassas, VA). THP1 was cultured in RPMI-1640 (Sigma) supplemented with 10% Hyclone fetal calf serum (Thermofisher Scientific), and antibiotics, and passage 3–5 cells were used for experiment. Cells at 60–80% confluence were differentiated by Phorbol 12-myristate 13-acetate (PMA, Sigma) for 24 hours and then starved overnight without Hyclone fetal calf serum prior to treatment.\n(§2) RNA was isolated from NHEKs using Purelink RNA isolation columns (ThermoFisher Scientific) according to the manufacturer’s instructions. RNA was quantified using a Nanodrop spectrophotometer (ThermoFisher Scientific), and up to 500 ng of RNA was reverse-transcribed using the iScript cDNA synthesis kit (Bio-Rad, Irvine, CA). Quantitative real-time PCR reactions were run on a CFX96 real-time detection system (Bio-Rad) using gene-specific primers and TaqMan probes (ThermoFisher Scientific). PCR primers and probes are shown on Table S2."}, "NHEKs": {"tested_on": "NHEKs", "test": "Cytokine mRNA expression in NHEKs stimulated with cathelicidin peptide and dsRNA (quantitative real-time PCR)", "settings": "for capacity to enable U1 RNA to amplify IFN-β1 or IL-6 expression: NHEKs, peptide 2.5 μM 10 minutes, then U1 RNA 2.5 μg/mL 6 hours, n = 3", "protocol": "as §1, with “S1. […]” for “S1.”\nas §2, with “PCR primers and probes are shown on Table S2.” left out"}, "THP1 cells [2]": {"tested_on": "THP1 cells", "test": "U1 RNA co-association with early endosome (EEA1) in THP1", "settings": "PMA-treated THP1, 37 °C, 4 hours", "protocol": "NHEKs were grown on 8-well chamber slides (Thermofisher Scientific). After indicated treatments, cells were fixed in 4% paraformaldehyde (PFA) (Thermofisher Scientific) for 10 minutes and blocked with 3% bovine serum albumin, 0.2 M Glycine (Sigma) with or without 1 mg/mL saponin (Sigma) prior to incubating with primary antibodies followed by appropriate 488- or 568-coupled secondary antibodies, or 488-streptavidin conjugate. Nuclei were counterstained with DAPI. All images were taken with an Olympus BX41 microscope (widefield), Zeiss LSM510 confocal microscope, or Nikon A1R Confocal STORM microscope as indicated.\nFigure S2. a) PMA-treated THP1 cultured at 37 °C for 4 hours with U1 RNA and cathelicidin peptides. Early endosomal antigen 1 (EEA1) is stained red, U1 RNA is stained green and nuclei were visualized with DAPI (blue). Scale bar represents 10 μm. b) IL-6 mRNA in NHEKs cultured with FPR1 inhibitor Boc-MLF (1 µM) or FPR2 inhibitor WRW4 (1 µM) for 1 hour, treated with LL37 (2.5 µM) and U1 RNA (2.5 µg/mL) for a further 6 hours. (n = 3). c) IL-6 mRNA in NHEKs cultured with G-protein coupled receptor inhibitor pertussis toxin (0.5 µg/mL) for 1 hour, treated with LL37 (2.5 µM) and U1 RNA (2.5 µg/mL) for a further 6 hours. (n = 3). […]"}}, "note": "Where no end group is shown, it is not given here.", "data": [{"substance": "LL37", "values": [{"measurement": "capacity to enable U1 RNA to amplify IFN-β1 or IL-6 expression", "setting": "THP1 cells [1]", "result": "large responses"}, {"measurement": "capacity to enable U1 RNA to amplify IFN-β1 or IL-6 expression", "setting": "NHEKs", "result": "large responses"}, {"measurement": "co-association of U1 RNA with the early endosome", "setting": "THP1 cells [2]", "result": "induced partial co-association with the early endosome"}]}, {"substance": "LLGDFFRKSKEKIGKEFKRIVQRIKDFLRNLVPR [LL34]", "values": [{"measurement": "capacity to enable U1 RNA to amplify IFN-β1 or IL-6 expression", "setting": "THP1 cells [1]", "result": "large responses"}, {"measurement": "capacity to enable U1 RNA to amplify IFN-β1 or IL-6 expression", "setting": "NHEKs", "result": "large responses"}, {"measurement": "capacity to induce IL-6 and IFN-β mRNA", "setting": "NHEKs; peptide with U1 RNA, keratinocytes", "result": "ca. 3000 fold"}, {"measurement": "co-association of U1 RNA with the early endosome", "setting": "THP1 cells [2]", "result": "induced partial co-association with the early endosome"}]}]}
